{"source": "patent US20050112573A1", "about": "“Method of detecting toxic substance” (priority 2001, published 2005)", "system": "yeast genes (level of expressed mRNA)", "assay": "DNA chip analysis of expressed mRNA of yeast genes after 2 h culture with a toxic chemical substance", "format": "cell-based, Saccharomyces cerevisiae S288C", "method": "Yeast (Saccharomyces cerevtisiae S288C (α SUC2mal mel gap2 CUP1)) were cultured at 25° C. on YPD medium (yeast extract 1%, polypepton 2%, glucose 2%). One of toxic chemical substances was added to the cell at logarithmic growth phase, and the cell was further cultured for two hours. Cell was cultured without any chemical substance in the same condition, and was used as control. Concentrations of the chemical substances were defined to inhibit the growth of the yeast but not lead to death.\nAfter the completion of cultivation, the culture was centrifuged to collect the cells. To the cells, sodium acetate buffer (50 mM sodium acetate, 10 mM EDTA, 1% SDS) was added, and the mixture was shaken at 65° C. for five minutes, followed by returning to room temperature, and obtaining the supernatant, which procedure was repeated two times. To the supernatant, ½ amount of a solution of phenol/chloroform was added, and the mixture was centrifuged to give a supernatant, which was added with an equal amount of chloroform, and the mixture was centrifuged to give a supernatant. To the supernatant, an equal amount of isopropanol containing 0.3 M sodium acetate was added, and the mixture was allowed to stand at room temperature for 30 minutes, after which the mixture was centrifuged to give a sediment of the whole RNAs. Seventy % ethanol was added to the sediment, and the mixture was again centrifuged to give a sediment, which was then dried and dissolved in water. mRNA was isolated from the whole RNAs as followings. In view of the fact that a poly A chain is attached to the 3′ terminus of mRNA, a polynucleotide having a poly T structure which was immobilized on the surface of latex beads was used to trap the mRNA, and then the mRNA was washed and eluted with spine column (Oligotex-dT30<Super>mRNA Purification Kit, Takara). Reverse transcription of the mRNA was conducted with a reverse transcriptase (Super Script II Reverse Transcriptase; catalogue No. 18064-014, GibcoBRL) using fluorescence-labeled nucleotides to give cDNAs that were introduced with Cy3-dUTP or Cy5-dUTP during the reverse transcription.\nThe labeled cDNAs were dissolved in TE buffer (10 mM Tris-HCl/1 mM EDTA, pH8.0), and the solution was dropped on the DNA chip containing the whole genes of yeast (DNA Chip Research Inc. Japan) so that the cDNAs were hybridized on the DNA chip at 65° C. for over 12 hours. The fluoresces intensity of the DNA chip was read with a scanner, and the ratio relative to the fluorescence intensity resulting from the absence of chemical substance was estimated as the following, which is shown in Tables 1 to 9: [formula]\nIn the Tables, “Intensity” indicated in the rightmost column is a value of the level of expressed mRNA of each gene in control cells as divided by the average level of the expressions of the whole genes.", "data": [{"smiles": "CCCCC[C@H](O)CC(=O)CCc1ccc(O)c(OC)c1", "note": "[(13), gingerol]", "values": [{"measurement": "level of expressed mRNA in the presence of chemical substance/in its absence", "setting": "gene YGR282C", "result": 1.2}, {"measurement": "The level of expressed mRNA in the presence of chemical substance/absence: YGR293C", "setting": "gene YGR293C", "result": 0.7}, {"measurement": "The level of expressed mRNA in the presence of chemical substance/absence: YHL006C", "setting": "gene YHL006C", "result": 1.1}, {"measurement": "The level of expressed mRNA in the presence of chemical substance/absence: YHL021C", "setting": "gene YHL021C", "result": 2.6}, {"measurement": "The level of expressed mRNA in the presence of chemical substance/absence: YHL037C", "setting": "gene YHL037C", "result": 1.0}, {"measurement": "level of expressed mRNA in the presence of chemical substance/in its absence", "setting": "gene YHR037W", "result": 1.1}, {"measurement": "The level of expressed mRNA in the presence of chemical substance/absence: YHR083W", "setting": "gene YHR083W", "result": 1.1}, {"measurement": "level of expressed mRNA in the presence of chemical substance/in its absence", "setting": "gene YHR092C", "result": 0.5}, {"measurement": "The level of expressed mRNA in the presence of chemical substance/absence: YHR095W", "setting": "gene YHR095W", "result": 0.7}, {"measurement": "The level of expressed mRNA in the presence of chemical substance/absence: YHR105W", "setting": "gene YHR105W", "result": 1.4}, {"measurement": "The level of expressed mRNA in the presence of chemical substance/absence: YHR134W", "setting": "gene YHR134W", "result": 1.2}, {"measurement": "level of expressed mRNA in the presence of chemical substance/in its absence", "setting": "gene YHR137W", "result": 0.6}, {"measurement": "The level of expressed mRNA in the presence of chemical substance/absence: YHR180W", "setting": "gene YHR180W", "result": 1.3}, {"measurement": "The level of expressed mRNA in the presence of chemical substance/absence: YHR181W", "setting": "gene YHR181W", "result": 0.7}, {"measurement": "level of expressed mRNA in the presence of chemical substance/in its absence", "setting": "gene YHR190W", "result": 1.7}, {"measurement": "level of expressed mRNA in the presence of chemical substance/in its absence", "setting": "gene YIL033C", "result": 2.5}, {"measurement": "The level of expressed mRNA in the presence of chemical substance/absence: YIL108W", "setting": "gene YIL108W", "result": 1.3}, {"measurement": "The level of expressed mRNA in the presence of chemical substance/absence: YIL127C", "setting": "gene YIL127C", "result": 0.4}, {"measurement": "level of expressed mRNA in the presence of chemical substance/in its absence", "setting": "gene YIL154C", "result": 1.7}, {"measurement": "The level of expressed mRNA in the presence of chemical substance/absence: YIL165C", "setting": "gene YIL165C", "result": 1.5}, {"measurement": "level of expressed mRNA in the presence of chemical substance/in its absence", "setting": "gene YIL167W", "result": 1.2}, {"measurement": "level of expressed mRNA in the presence of chemical substance/in its absence", "setting": "gene YIR035C", "result": 1.1}, {"measurement": "The level of expressed mRNA in the presence of chemical substance/absence: YJL017W", "setting": "gene YJL017W", "result": 1.5}, {"measurement": "The level of expressed mRNA in the presence of chemical substance/absence: YJL032W", "setting": "gene YJL032W", "result": 1.4}, {"measurement": "The level of expressed mRNA in the presence of chemical substance/absence: YJL037W", "setting": "gene YJL037W", "result": 1.1}, {"measurement": "The level of expressed mRNA in the presence of chemical substance/absence: YJL049W", "setting": "gene YJL049W", "result": 0.9}, {"measurement": "level of expressed mRNA in the presence of chemical substance/in its absence", "setting": "gene YJL088W", "result": 1.0}, {"measurement": "The level of expressed mRNA in the presence of chemical substance/absence: YJL097W", "setting": "gene YJL097W", "result": 0.7}, {"measurement": "level of expressed mRNA in the presence of chemical substance/in its absence", "setting": "gene YJL132W", "result": 1.3}, {"measurement": "level of expressed mRNA in the presence of chemical substance/in its absence", "setting": "gene YJL196C", "result": 0.6}, {"measurement": "The level of expressed mRNA in the presence of chemical substance/absence: YJR030C", "setting": "gene YJR030C", "result": 0.7}, {"measurement": "The level of expressed mRNA in the presence of chemical substance/absence: YJR044C", "setting": "gene YJR044C", "result": 2.0}, {"measurement": "level of expressed mRNA in the presence of chemical substance/in its absence", "setting": "gene YJR142W", "result": 1.6}, {"measurement": "level of expressed mRNA in the presence of chemical substance/in its absence", "setting": "gene YJR148W", "result": 1.1}, {"measurement": "level of expressed mRNA in the presence of chemical substance/in its absence", "setting": "gene YJR159W", "result": 2.1}, {"measurement": "The level of expressed mRNA in the presence of chemical substance/absence: YKL051W", "setting": "gene YKL051W", "result": 1.2}, {"measurement": "The level of expressed mRNA in the presence of chemical substance/absence: YKL059C", "setting": "gene YKL059C", "result": 1.3}, {"measurement": "level of expressed mRNA in the presence of chemical substance/in its absence", "setting": "gene YKL067W", "result": 1.7}, {"measurement": "The level of expressed mRNA in the presence of chemical substance/absence: YKL090W", "setting": "gene YKL090W", "result": 0.8}, {"measurement": "The level of expressed mRNA in the presence of chemical substance/absence: YKL094W", "setting": "gene YKL094W", "result": 1.7}, {"measurement": "The level of expressed mRNA in the presence of chemical substance/absence: YKL097C", "setting": "gene YKL097C", "result": 0.9}, {"measurement": "The level of expressed mRNA in the presence of chemical substance/absence: YKL100C", "setting": "gene YKL100C", "result": 1.3}, {"measurement": "level of expressed mRNA in the presence of chemical substance/in its absence", "setting": "gene YKR039W", "result": 1.3}, {"measurement": "The level of expressed mRNA in the presence of chemical substance/absence: YKR040C", "setting": "gene YKR040C", "result": 0.6}, {"measurement": "The level of expressed mRNA in the presence of chemical substance/absence: YLR097C", "setting": "gene YLR097C", "result": 1.1}, {"measurement": "level of expressed mRNA in the presence of chemical substance/in its absence", "setting": "gene YLR142W", "result": 1.2}, {"measurement": "level of expressed mRNA in the presence of chemical substance/in its absence", "setting": "gene YLR180W", "result": 0.6}, {"measurement": "The level of expressed mRNA in the presence of chemical substance/absence: YLR226W", "setting": "gene YLR226W", "result": 0.7}, {"measurement": "level of expressed mRNA in the presence of chemical substance/in its absence", "setting": "gene YLR273C", "result": 1.7}, {"measurement": "level of expressed mRNA in the presence of chemical substance/in its absence", "setting": "gene YLR300W", "result": 0.2}, {"measurement": "level of expressed mRNA in the presence of chemical substance/in its absence", "setting": "gene YLR307W", "result": 1.0}, {"measurement": "The level of expressed mRNA in the presence of chemical substance/absence: YLR338W", "setting": "gene YLR338W", "result": 1.2}, {"measurement": "The level of expressed mRNA in the presence of chemical substance/absence: YLR339C", "setting": "gene YLR339C", "result": 0.1}, {"measurement": "The level of expressed mRNA in the presence of chemical substance/absence: YLR392C", "setting": "gene YLR392C", "result": 1.4}, {"measurement": "The level of expressed mRNA in the presence of chemical substance/absence: YLR415C", "setting": "gene YLR415C", "result": 1.0}, {"measurement": "The level of expressed mRNA in the presence of chemical substance/absence: YLR427W", "setting": "gene YLR427W", "result": 2.5}, {"measurement": "The level of expressed mRNA in the presence of chemical substance/absence: YML013W", "setting": "gene YML013W", "result": 1.2}]}]}
